Measured values taken from ChEMBL document CHEMBL1201862, “PubChem BioAssay data set” (2004).
Calls of active or inactive are those of the source.

Tests used:
[1] = HeLa cell cytotoxicity, dose response, cytotoxicity control for MgcRacGAP inhibitor project (AID 624300); assay type: functional
[2] = target: T1, Rac GTPase-activating protein 1 (Homo sapiens, UniProt Q9H0H5); experiment: MgcRacGAP GTPase-activating activity inhibitors, confirmation, biochemical, ADP Hunter fluorescence, primary and confirmatory (AID 624330); assay type: functional
T1 sequence (Q9H0H5 whole entry): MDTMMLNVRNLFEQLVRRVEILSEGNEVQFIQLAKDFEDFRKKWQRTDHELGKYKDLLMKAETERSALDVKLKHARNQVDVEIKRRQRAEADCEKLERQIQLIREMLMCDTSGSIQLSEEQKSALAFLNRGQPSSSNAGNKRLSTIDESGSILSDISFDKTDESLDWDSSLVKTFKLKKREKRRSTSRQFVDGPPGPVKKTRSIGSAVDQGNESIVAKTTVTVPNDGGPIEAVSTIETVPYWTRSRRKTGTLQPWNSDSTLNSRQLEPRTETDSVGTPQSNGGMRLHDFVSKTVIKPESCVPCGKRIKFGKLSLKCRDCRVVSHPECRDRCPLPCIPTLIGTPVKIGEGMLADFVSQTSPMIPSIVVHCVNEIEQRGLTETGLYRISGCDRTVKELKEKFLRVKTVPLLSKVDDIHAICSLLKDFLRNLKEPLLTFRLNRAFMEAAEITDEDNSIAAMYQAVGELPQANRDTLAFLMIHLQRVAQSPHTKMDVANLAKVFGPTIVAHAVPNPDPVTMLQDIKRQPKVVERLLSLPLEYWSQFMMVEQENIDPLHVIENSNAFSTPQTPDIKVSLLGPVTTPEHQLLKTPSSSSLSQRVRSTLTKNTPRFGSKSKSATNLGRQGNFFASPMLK

[3] = target: T2, Oxysterols receptor LXR-beta (Homo sapiens, UniProt P55055); assay type: functional, cell-based;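 note: agonist activity at LXR measured by a cell-based luminescence readout across a dose range, run as a counterscreen for daf-12 agonists; HEK293 cells with Gal4-LXR fusion and GAL4-driven luciferase reporter; potency for activation of Gal4-LXR reporter so compounds are agonists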
T2 sequence (P55055 whole entry): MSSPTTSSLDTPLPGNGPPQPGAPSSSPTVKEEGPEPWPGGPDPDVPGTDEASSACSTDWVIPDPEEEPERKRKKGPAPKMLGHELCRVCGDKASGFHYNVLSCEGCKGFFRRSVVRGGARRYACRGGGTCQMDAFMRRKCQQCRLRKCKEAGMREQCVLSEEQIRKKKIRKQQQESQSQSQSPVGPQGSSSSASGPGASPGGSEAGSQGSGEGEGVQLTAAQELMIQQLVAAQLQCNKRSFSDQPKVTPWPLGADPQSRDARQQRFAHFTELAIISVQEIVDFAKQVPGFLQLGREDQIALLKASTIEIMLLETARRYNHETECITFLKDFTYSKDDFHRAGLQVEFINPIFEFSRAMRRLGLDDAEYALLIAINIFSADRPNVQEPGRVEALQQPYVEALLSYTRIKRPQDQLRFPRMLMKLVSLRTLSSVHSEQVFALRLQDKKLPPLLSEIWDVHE

[4] = NIH-3T3 fibroblast cytotoxicity, dose response, cytotoxicity control, cell-based, fluorescence, Alamar Blue, secondary assay (AID 2327); assay type: functional;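 note: NIH-3T3 mouse fibroblasts cultured with fluconazole at 8 µg/mL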
[5] = C. albicans growth with fluconazole, confirmation, fluorescence, retest (AID 2467); assay type: functional, cell-based
[6] = inhibitors of intracellular T. cruzi replication, confirmation, NIH3T3 host cells, beta-gal luminescence (AID 2044); assay type: functional, cell-based;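 note: intracellular parasites grown in NIH/3T3 mouse fibroblasts as host cells; luminescent beta-galactosidase reporter signal from transgenic T. cruzi replicating inside host cells; inhibitors lower the luminescence signal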
[7] = cytotoxicity toward NIH3T3 fibroblasts, dose response, counter-screen, cell-based, ATP luminescence, mouse fibroblasts (AID 2010); assay type: functional;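 note: cells exposed to compound for about 90 hours before reading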
cells [8] = assay type: functional, cell-based
[9] = target: T3, Trace amine-associated receptor 1 (Homo sapiens, UniProt Q96RJ0); experiment: Fluorescence-based cell-based high throughput dose response assay to identify agonists of the human trace amine associated receptor 1 (TAAR1).; assay type: functional
T3 sequence (Q96RJ0 whole entry): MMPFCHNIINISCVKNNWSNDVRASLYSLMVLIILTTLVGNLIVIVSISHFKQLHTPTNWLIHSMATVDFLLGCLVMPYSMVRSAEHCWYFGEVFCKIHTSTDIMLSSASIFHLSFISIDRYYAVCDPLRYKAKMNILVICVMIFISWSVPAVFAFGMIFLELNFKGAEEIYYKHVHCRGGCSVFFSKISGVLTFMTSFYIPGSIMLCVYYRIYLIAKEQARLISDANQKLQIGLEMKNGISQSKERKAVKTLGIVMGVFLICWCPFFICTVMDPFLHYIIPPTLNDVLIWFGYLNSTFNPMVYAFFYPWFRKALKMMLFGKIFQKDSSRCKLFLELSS

[10] = target: T3, Trace amine-associated receptor 1; experiment: Counterscreen for agonists of the human trace amine associated receptor 1 (hTAAR1): Fluorescence-based cell-based high throughput dose response assay to identify hTAAR1 agonist that also desensitize TAAR1 receptor response.; assay type: functional
cells [11] = assay type: functional, cell-based; remark: listed apart in the source
Leucine aminopeptidase = target: T4, Leucine aminopeptidase (Plasmodium falciparum 3D7, UniProt Q8IL11); experiment: P. falciparum M17LAP inhibitors, primary screen, biochemical, fluorogenic H-Leu-NHMec substrate, 1536-well (AID 1619); assay type: functional
T4 sequence (Q8IL11 whole entry): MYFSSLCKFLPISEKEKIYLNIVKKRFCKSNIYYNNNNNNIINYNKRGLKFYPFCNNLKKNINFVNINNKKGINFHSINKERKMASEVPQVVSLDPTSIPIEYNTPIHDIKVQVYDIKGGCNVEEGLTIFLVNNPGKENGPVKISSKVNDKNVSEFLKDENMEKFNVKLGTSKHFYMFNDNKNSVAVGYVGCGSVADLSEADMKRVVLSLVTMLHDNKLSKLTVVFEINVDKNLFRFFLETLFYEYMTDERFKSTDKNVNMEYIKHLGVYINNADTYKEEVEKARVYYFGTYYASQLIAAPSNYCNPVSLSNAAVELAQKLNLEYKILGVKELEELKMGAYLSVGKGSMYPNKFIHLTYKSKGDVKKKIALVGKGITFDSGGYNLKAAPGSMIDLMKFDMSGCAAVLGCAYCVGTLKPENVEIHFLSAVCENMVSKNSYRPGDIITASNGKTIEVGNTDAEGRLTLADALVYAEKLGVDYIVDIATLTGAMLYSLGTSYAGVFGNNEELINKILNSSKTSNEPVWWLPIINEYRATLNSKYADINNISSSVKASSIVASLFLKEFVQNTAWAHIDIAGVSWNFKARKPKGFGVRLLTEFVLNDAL

Large T antigen = Large T antigen (Simian virus 40, UniProt P03070); assay type: functional, Betapolyomavirus macacae;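 note: Confirmatory-stage PubChem screen for compounds that inhibit SV40 T antigen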
Chain of Large T antigen (P03070 whole entry): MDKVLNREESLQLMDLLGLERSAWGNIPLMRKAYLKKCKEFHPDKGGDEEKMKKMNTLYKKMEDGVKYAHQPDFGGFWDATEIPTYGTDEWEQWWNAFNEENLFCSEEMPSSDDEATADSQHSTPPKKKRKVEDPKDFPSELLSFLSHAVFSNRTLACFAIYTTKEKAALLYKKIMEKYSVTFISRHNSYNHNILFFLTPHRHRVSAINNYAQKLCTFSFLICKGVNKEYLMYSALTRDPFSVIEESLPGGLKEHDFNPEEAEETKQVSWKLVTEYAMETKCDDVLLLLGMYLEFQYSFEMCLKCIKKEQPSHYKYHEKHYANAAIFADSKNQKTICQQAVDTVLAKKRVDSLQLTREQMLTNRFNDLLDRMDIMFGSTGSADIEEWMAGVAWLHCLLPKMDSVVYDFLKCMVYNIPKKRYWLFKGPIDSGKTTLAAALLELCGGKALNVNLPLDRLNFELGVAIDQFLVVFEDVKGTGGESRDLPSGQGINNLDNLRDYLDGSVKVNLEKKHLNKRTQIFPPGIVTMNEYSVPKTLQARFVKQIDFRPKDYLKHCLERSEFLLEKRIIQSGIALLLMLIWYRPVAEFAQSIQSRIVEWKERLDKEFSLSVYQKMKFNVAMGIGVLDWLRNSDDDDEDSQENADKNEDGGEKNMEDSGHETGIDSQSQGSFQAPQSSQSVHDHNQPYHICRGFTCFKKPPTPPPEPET

[12] = target: T5, DNA repair and recombination protein RAD54-like (Homo sapiens, UniProt Q92698); experiment: inhibitors of human RAD54 branch migration, confirmation, biochemical, fluorescence, cherry-picked samples, dose series (AID 651657); assay type: functional
T5 sequence (Q92698 whole entry): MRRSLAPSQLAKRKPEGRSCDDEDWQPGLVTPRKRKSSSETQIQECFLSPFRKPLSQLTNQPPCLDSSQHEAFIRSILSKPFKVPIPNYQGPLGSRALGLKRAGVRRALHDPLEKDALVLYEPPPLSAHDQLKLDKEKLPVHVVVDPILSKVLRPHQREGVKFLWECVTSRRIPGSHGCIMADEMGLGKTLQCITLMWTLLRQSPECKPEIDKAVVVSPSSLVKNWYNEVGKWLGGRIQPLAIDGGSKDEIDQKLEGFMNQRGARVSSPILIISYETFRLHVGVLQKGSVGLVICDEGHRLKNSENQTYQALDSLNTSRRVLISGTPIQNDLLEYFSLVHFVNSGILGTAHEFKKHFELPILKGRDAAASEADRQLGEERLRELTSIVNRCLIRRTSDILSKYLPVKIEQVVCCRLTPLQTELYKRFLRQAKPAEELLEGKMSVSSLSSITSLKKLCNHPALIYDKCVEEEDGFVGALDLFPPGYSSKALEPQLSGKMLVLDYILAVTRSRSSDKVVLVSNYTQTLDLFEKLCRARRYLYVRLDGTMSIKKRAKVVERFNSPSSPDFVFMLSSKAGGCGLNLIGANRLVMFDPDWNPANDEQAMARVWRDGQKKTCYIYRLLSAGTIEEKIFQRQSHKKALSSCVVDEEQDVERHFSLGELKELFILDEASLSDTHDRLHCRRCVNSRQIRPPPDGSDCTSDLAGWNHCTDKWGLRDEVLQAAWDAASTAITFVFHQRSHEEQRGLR

[13] = target: T6, Sentrin-specific protease 8 (Homo sapiens, UniProt Q96LD8); assay type: functional
T6 sequence (Q96LD8 whole entry): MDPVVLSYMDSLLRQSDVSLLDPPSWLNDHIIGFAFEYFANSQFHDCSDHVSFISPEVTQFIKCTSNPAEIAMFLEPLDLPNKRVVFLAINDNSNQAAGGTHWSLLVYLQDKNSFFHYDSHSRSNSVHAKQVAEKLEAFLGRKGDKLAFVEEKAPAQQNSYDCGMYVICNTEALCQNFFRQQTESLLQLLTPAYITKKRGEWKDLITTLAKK

[14] = target: T6, Sentrin-specific protease 8; assay type: functional; remark: listed apart in the source
[15] = target: T7, Heat shock factor protein 1 (Mus musculus, UniProt P38532); experiment: HSF1 potentiators in luciferase reporter cells, confirmation, cell-based, NIH3T3, luminescence, dose retest (AID 435004); assay type: functional;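 note: stress induced by proteasome inhibitor MG132 added 30 min after compound; luciferase reporter driven by HSF1 response element in NIH3T3 cells; actives raise luminescence as potentiators of the MG132 stress response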
T7 sequence (P38532 whole entry): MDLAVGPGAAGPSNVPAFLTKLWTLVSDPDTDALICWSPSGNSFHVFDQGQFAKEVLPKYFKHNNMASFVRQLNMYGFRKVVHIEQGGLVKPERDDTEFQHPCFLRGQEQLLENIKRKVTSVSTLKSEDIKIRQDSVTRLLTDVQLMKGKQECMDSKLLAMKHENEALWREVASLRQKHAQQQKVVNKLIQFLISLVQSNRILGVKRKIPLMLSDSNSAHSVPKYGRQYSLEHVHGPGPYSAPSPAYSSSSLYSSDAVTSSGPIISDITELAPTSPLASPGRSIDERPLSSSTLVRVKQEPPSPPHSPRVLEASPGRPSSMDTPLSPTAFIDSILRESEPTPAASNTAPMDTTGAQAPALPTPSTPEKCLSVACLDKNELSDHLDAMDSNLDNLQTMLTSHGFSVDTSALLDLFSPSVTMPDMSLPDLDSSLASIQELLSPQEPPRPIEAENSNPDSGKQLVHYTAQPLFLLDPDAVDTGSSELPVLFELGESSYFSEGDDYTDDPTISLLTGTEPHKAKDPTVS

[16] = target: T8, DNA repair protein RAD52 homolog (Homo sapiens, UniProt P43351); assay type: functional, biochemical
T8 sequence (P43351 whole entry): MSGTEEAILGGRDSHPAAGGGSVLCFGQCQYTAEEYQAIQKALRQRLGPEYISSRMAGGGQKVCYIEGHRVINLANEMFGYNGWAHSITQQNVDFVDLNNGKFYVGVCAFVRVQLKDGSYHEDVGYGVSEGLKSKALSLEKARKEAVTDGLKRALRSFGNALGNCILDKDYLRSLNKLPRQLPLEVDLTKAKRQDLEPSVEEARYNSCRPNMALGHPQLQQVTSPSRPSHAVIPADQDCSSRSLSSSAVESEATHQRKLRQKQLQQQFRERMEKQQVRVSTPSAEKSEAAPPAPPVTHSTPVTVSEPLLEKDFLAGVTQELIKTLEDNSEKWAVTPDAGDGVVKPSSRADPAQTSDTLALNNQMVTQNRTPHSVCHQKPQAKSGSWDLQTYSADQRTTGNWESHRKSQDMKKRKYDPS

Compound: OC(CON=C1c2ccccc2-c2ccccc21)CN1CCNCC1 (centres undefined)
- CC50 [1]: 100 µM (active)
- IC50 [2]: 62.7 µM (active)

Compound: CCCSc1nsc(NC(=O)CC)n1
- EC50 [3]: > 67.5 µM (inactive)

Compound: N=C(NOC(=O)N1c2ccccc2Sc2ccccc21)c1ccccc1
- EC50 [4]: > 160 µM (inactive)
- EC50 [5]: 1.22 µM (active)
- EC50 [6]: 0.814 µM (active)
- EC50 [7]: > 60 µM (not active)
- CC50 [1]: 100 µM (active)

Compound: Cc1cccn2c(CNCC3OCCc4ccccc43)c(C(=O)N3CCCCC3)nc12 (centres undefined)
- IC50 (cells [8]): > 29.9 µM (inactive)
- EC50 [9]: 4.38 µM (active)
- IC50 [10]: 4.82 µM (active)
- EC50 (cells [11]): > 29.9 µM (inactive)

Compound: Cc1ccc(-c2onc3ccc(C(=O)O)cc23)cc1
- EC50 [3]: > 67.6 µM (inactive)

Compound: Cc1cc(C(=O)CSc2ncccn2)c(C)n1Cc1ccco1
- EC50 [3]: > 67.5 µM (inactive)

Compound: COc1ccc(Nc2cc(C)nc(N3CCOCC3)n2)cc1
- IC50 (cells [8]): > 29.9 µM (inactive)
- EC50 [9]: 3.33 µM (active)
- IC50 [10]: > 29.9 µM (inactive)
- EC50 (cells [11]): > 29.9 µM (inactive)

Compound: CC(C)C1N=C2c3ccccc3N=C(SCC(=O)c3ccc(O)c(O)c3)N2C1=O (centres undefined)
- IC50 (Leucine aminopeptidase): 17.7 µM (active)
- IC50 (Large T antigen): 21.3 µM (active)
- CC50 [1]: 100 µM (active)
- IC50 [2]: 26.1 µM (active)

Compound: c1cc2c3c(cccc3c1)C(N1CCCCC1)=N2
- AC50 [12]: 34 µM (active)

Compound: Cc1cc(C)n(C(CC(=O)N2CCc3ccccc3C2)C(=O)O)n1 (centres undefined)
- IC50 [13]: > 100 µM (inactive)
- IC50 [14]: 16.5 µM (active)
- IC50 (cells [8]): > 29.9 µM (inactive)
- EC50 [9]: 1.06 µM (active)
- IC50 [10]: 4.32 µM (active)
- EC50 (cells [11]): > 29.9 µM (inactive)

Compound: Cc1n[nH]c(-c2ccc(O)c(C)c2O)c1-c1cnn(-c2ccccc2)c1
- EC50 [4]: > 160 µM (inconclusive)
- EC50 [5]: > 38 µM (not active)
- EC50 [15]: > 260 µM (inactive)
- CC50 [1]: 98.9 µM (active)
- IC50 [2]: 85.8 µM (active)

Compound: CN(C)CCCNc1nc2cc(-c3cccc(Cl)c3)sc2c(=O)n1C
- AC50 [12]: 32.9 µM (active)
- AC50 [16]: 4.7 µM (active)

Compound: CCCCCCCCN1C(=O)[C@H](CC(=O)NCCc2ccccc2OC)C[C@@]2(C(=O)OC)CCCCC=C12
- IC50 (cells [8]): > 29.9 µM (inactive)
- EC50 [9]: 7.05 µM (active)
- IC50 [10]: 9.43 µM (active)
- EC50 (cells [11]): > 29.9 µM (inactive)

Compound: CC(Nc1ccnc2cc(Cl)ccc12)c1ccc(S(N)(=O)=O)cc1 (centres undefined)
- IC50 (cells [8]): > 29.9 µM (inactive)
- EC50 [9]: 14.9 µM (inactive)
- IC50 [10]: > 29.9 µM (inactive)
- EC50 (cells [11]): > 29.9 µM (inactive)
